This assay deals with T1, HPK1 (Homo sapiens, UniProt Q92918).
T1 construct: A HiBiT tag was introduced by CRISPR on the N terminus of HPK1 in Jurkat cells; host or cells: Jurkat cells (ATCC TIB-152), monoclonal line with CRISPR knock-in of HiBiT at the endogenous HPK1 locus
The experiment in a line: HPK1 Cellular HiBit Degradation Assay. The assay is classed as cell-based. The conditions noted are these: HiBiT HPK1 Jurkat cells, 24 hrs; for DC50: concentration at which 50% of HPK1 was remaining, read-out: DC50 Category; for Dmax: Jurkat, maximum degradation vs DMSO vehicle control, read-out: Dmax Category. A digest of the protocol:
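Jurkat cells with CRISPR knock-in N-terminal HiBiT-HPK1 were treated with CTMs (11-point, 3.16-fold, 10 uM to 0.1 nM final) for 24 hrs at 37° C. HiBiT lytic luminescence, with parental Jurkat as background and DMSO as 100%, gave % HPK1 remaining; four-parameter fit yielded DC50 and Dmax (100 minus lowest % remaining).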
(The HiBiT peptide binds its large partner to form an active luciferase.)

From patent US12091426B2, “Bifunctional degraders of hematopoietic progenitor kinase and therapeutic uses thereof” (Nurix Therapeutics, Inc., priority 2021, dated 2024) come the findings set out here.

T1 sequence (Q92918 whole entry): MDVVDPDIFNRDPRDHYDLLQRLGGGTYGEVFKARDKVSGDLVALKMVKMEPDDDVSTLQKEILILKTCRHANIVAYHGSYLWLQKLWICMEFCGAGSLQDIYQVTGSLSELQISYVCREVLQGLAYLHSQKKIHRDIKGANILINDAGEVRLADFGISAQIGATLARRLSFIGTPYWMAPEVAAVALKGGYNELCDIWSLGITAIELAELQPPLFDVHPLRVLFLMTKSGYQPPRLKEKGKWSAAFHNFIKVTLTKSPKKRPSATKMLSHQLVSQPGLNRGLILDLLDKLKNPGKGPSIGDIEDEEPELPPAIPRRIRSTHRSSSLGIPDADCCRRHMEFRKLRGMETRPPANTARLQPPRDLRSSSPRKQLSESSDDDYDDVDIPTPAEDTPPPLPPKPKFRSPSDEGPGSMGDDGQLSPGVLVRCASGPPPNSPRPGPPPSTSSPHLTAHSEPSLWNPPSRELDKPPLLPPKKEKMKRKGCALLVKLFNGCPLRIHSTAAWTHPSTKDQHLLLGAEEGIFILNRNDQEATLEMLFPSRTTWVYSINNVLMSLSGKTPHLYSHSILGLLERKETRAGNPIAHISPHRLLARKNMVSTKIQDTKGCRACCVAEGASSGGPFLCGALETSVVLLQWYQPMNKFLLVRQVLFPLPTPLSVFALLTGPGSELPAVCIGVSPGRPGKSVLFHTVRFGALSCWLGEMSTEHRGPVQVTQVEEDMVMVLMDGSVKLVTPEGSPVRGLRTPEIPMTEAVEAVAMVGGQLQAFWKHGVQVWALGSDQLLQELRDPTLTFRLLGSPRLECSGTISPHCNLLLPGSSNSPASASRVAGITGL

As usually defined, the DC50 is the concentration at which degradation of the target reaches its halfway point. Broadly, the Dmax is the largest share of the target that was removed. For the compound `CC(C)n1cnc2cc(-c3ccc4c(c3)N([C@H]3C[C@@H](N5CCCCC5)C3)C(=O)C43CCN(C(=O)c4ccc(C(=O)N5CCN(c6ccc7c(c6)C(=O)N(C6CCC(=O)NC6=O)C7=O)CC5)nc4)CC3)nc(Nc3ccccc3F)c21` (mixture of isomers) [Example 45, 2-[(3RS)-2,6-dioxopiperidin-3-yl]-5-(4-{5-[(6-{4-[(2-fluorophenyl)amino]-3-(propan-2-yl)-3H-imidazo[4,5-c]pyridin-6-yl}-2-oxo-1-[(1S,3S)-3-(piperidin-1-yl)cyclobutyl]-1,2-dihydrospiro[indole-3,4′-piperidin]-1′-yl)carbonyl]pyridine-2-carbonyl}piperazin-1-yl)-2,3-dihydro-1H-isoindole-1,3-dione], the DC50 was in the range of 100 to 500 nM and the greatest degradation seen (Dmax) was 70 to 85%.

Turning to `CC(C)n1cnc2cc(-c3ccc4c(c3)N([C@H]3C[C@@H](N5CCCCC5)C3)C(=O)C43CCN(C(=O)C4CCN(C(=O)C5CCN(c6ccc(C7CCC(=O)NC7=O)nc6)CC5)CC4)CC3)nc(Nc3ccncc3F)c21` (mixture of isomers) [Example 82, (3RS)-3-[5-(4-{4-[(6-{4-[(3-fluoropyridin-4-yl)amino]-3-(propan-2-yl)-3H-imidazo[4,5-c]pyridin-6-yl}-2-oxo-1-[(1S,3S)-3-(piperidin-1-yl)cyclobutyl]-1,2-dihydrospiro[indole-3,4′-piperidin]-1′-yl)carbonyl]piperidine-1-carbonyl}piperidin-1-yl)pyridin-2-yl]piperidine-2,6-dione], the DC50 was below 100 nM and the Dmax is 70 to 85%.

Turning to `CC(C)n1cnc2cc(-c3ccc4c(c3)N([C@H]3C[C@@H](N5CCCCC5)C3)C(=O)C43CCN(C(=O)[C@H]4CN(C(=O)C5CCN(c6ccc(C7CCC(=O)NC7=O)cn6)CC5)C[C@H]4C)CC3)nc(NC3CC3)c21` (mixture of isomers) [Example 248, (3RS)-3-(6-{4-[(3R,4S)-3-({6-[4-(cyclopropylamino)-3-(propan-2-yl)-3H-imidazo[4,5-c]pyridin-6-yl]-2-oxo-1-[(1S,3S)-3-(piperidin-1-yl)cyclobutyl]-1,2-dihydrospiro[indole-3,4′-piperidin]-1′-yl}carbonyl)-4-methylpyrrolidine-1-carbonyl]piperidin-1-yl}pyridin-3-yl)piperidine-2,6-dione], the DC50 is below 100 nM and the Dmax was above 85%.

As for `CC(C)n1cnc2cc(-c3ccc4c(c3)N(C3CC(N5CCCCC5)C3)C(=O)C43CCN(CC(=O)N4CCN(C(=O)C5CCN(c6ccc(C7CCC(=O)NC7=O)cn6)CC5)CC4)CC3)nc(NC3CC3)c21` (centres unmarked) [Example 183, 3-(6-{4-[4-(2-{6-[4-(cyclopropylamino)-3-(propan-2-yl)-3H-imidazo[4,5-c]pyridin-6-yl]-2-oxo-1-[3-(piperidin-1-yl)cyclobutyl]-1,2-dihydrospiro[indole-3,4′-piperidine]-1′-yl}Acetyl)piperazine-1-carbonyl]piperidin-1-yl}pyridin-3-yl)piperidine-2,6-dione], the half-maximal degradation concentration (DC50) is below 100 nM and the Dmax was above 85%.

Consider `CC(C)n1cnc2cc(-c3ccc4c(c3)N([C@H]3C[C@@H](N5CCCCC5)C3)C(=O)C43CCN(C(=O)[C@H]4CCN(C(=O)C5CCN(c6ccc(C7CCC(=O)NC7=O)cn6)CC5)C[C@H]4C)CC3)nc(NC3CC3)c21` (mixture of isomers) [Example 247, (3RS)-3-(6-{4-[(3S,4S)-4-({6-[4-(cyclopropylamino)-3-(propan-2-yl)-3H-imidazo[4,5-c]pyridin-6-yl]-2-oxo-1-[(1S,3S)-3-(piperidin-1-yl)cyclobutyl]-1,2-dihydrospiro[indole-3,4′-piperidin]-1′-yl}carbonyl)-3-methylpiperidine-1-carbonyl]piperidin-1-yl}pyridin-3-yl)piperidine-2,6-dione], for which the 50% degradation concentration (DC50) was below 100 nM and the Dmax is 70 to 85%.

For `CC(C)n1cnc2cc(-c3ccc4c(c3)N([C@H]3C[C@@H](N5CCCCC5)C3)C(=O)C43CCN(C(=O)[C@@H]4CCN(C(=O)[C@H]5CC[C@H](Nc6cccc7c6C(=O)N(C6CCC(=O)NC6=O)C7=O)CC5)C4)CC3)nc(Nc3ccncc3F)c21` (mixture of isomers) [Example 11, 2-[(3RS)-2,6-dioxopiperidin-3-yl]-4-{[(1R,4R)-4-[(3R)-3-[(6-{4-[(3-fluoropyridin-4-yl)amino]-3-(propan-2-yl)-3H-imidazo[4,5-c]pyridin-6-yl}-2-oxo-1-[(1S,3S)-3-(piperidin-1-yl)cyclobutyl]-1,2-dihydrospiro[indole-3,4′-piperidin]-1′-yl)carbonyl]pyrrolidine-1-carbonyl]cyclohexyl]amino}-2,3-dihydro-1H-isoindole-1,3-dione], the DC50 was in the range of 100 to 500 nM and the greatest degradation seen (Dmax) lay in the range of 50 to 70%.

In the case of `CC(C)n1cnc2cc(-c3ccc4c(c3)N([C@H]3C[C@@H](N5CCCCC5)C3)C(=O)C43CCN(C(=O)C4(C)CCN(C(=O)C5CCN(c6ccc(C7CCC(=O)NC7=O)cn6)CC5)CC4)CC3)nc(N3CCCC3)c21` (stereo partly drawn) [Example 170, 3-(6-{4-[4-methyl-4-({2-oxo-6-[3-(propan-2-yl)-4-(pyrrolidin-1-yl)-3H-imidazo[4,5-c]pyridin-6-yl]-1-[(1S,3S)-3-(piperidin-1-yl)cyclobutyl]-1,2-dihydrospiro[indole-3,4′-piperidin]-1′-yl}carbonyl)piperidine-1-carbonyl]piperidin-1-yl}pyridin-3-yl)piperidine-2,6-dione], the DC50 fell in the range of 100 to 500 nM and the maximal degradation (Dmax) was 50 to 70%.

As to `CC(C)n1cnc2cc(-c3ccc4c(c3)N([C@H]3C[C@@H](N5CCCCC5)C3)C(=O)C43CCN(C(=O)C4CCN(C(=O)C5CCN(c6ccc(C7CCC(=O)NC7=O)cc6)CC5)CC4)CC3)nc(NC3CC3)c21` (stereo partly drawn) [Example 66, 3-(4-(4-(4-(6-(4-(cyclopropylamino)-3-isopropyl-3H-imidazo[4,5-c]pyridin-6-yl)-2-oxo-1-((1S,3S)-3-(piperidin-1-yl)cyclobutyl)spiro[indoline-3,4′-piperidine]-1′-carbonyl)piperidine-1-carbonyl)piperidin-1-yl)phenyl)piperidine-2,6-dione], the DC50 was below 100 nM and the Dmax was 70 to 85%.

In the case of `CC(C)n1cnc2cc(-c3ccc4c(c3)N([C@H]3C[C@@H](N5CCCCC5)C3)C(=O)C43CCN(C(=O)C4CC5CCC4N(C(=O)C4CCN(c6ccc(C7CCC(=O)NC7=O)cn6)CC4)C5)CC3)nc(NC3CC3)c21` (mixture of isomers) [Example 283, (3RS)-3-(6-{4-[6-({6-[4-(cyclopropylamino)-3-(propan-2-yl)-3H-imidazo[4,5-c]pyridin-6-yl]-2-oxo-1-[(1S,3S)-3-(piperidin-1-yl)cyclobutyl]-1,2-dihydrospiro[indole-3,4′-piperidin]-1′-yl}carbonyl)-2-azabicyclo[2.2.2]Octane-2-carbonyl]piperidin-1-yl}pyridin-3-yl)piperidine-2,6-dione], the DC50 is 100 to 500 nM and the Dmax is 50 to 70%.

As to `CC(C)n1cnc2cc(-c3ccc4c(c3)N([C@H]3C[C@@H](N5CCCCC5)C3)C(=O)C43CCN(C(=O)[C@H]4CN(C(=O)C5CCN(c6ccc(C7CCC(=O)NC7=O)cc6)CC5)CC4(C)C)CC3)nc(NC3CC3)c21` (mixture of isomers) [Example 252, (3RS)-3-(4-{4-[(4R)-4-({6-[4-(cyclopropylamino)-3-(propan-2-yl)-3H-imidazo[4,5-c]pyridin-6-yl]-2-oxo-1-[(1S,3S)-3-(piperidin-1-yl)cyclobutyl]-1,2-dihydrospiro[indole-3,4′-piperidin]-1′-yl}carbonyl)-3,3-dimethylpyrrolidine-1-carbonyl]piperidin-1-yl}phenyl)piperidine-2,6-dione], the DC50 was below 100 nM and the Dmax fell in the range of 70 to 85%.

On to `CC(C)n1cnc2cc(-c3ccc4c(c3)N([C@H]3C[C@@H](N5CCCCC5)C3)C(=O)C43CCN(C(=O)C4CCN(C(=O)C5CCN(c6ccc(C7CCC(=O)NC7=O)cn6)CC5)CC4(F)F)CC3)nc(NC3CC3)c21` (mixture of isomers) [Example 273, (3RS)-3-(6-{4-[4-({6-[4-(cyclopropylamino)-3-(propan-2-yl)-3H-imidazo[4,5-c]pyridin-6-yl]-2-oxo-1-[(1S,3S)-3-(piperidin-1-yl)cyclobutyl]-1,2-dihydrospiro[indole-3,4′-piperidin]-1′-yl}carbonyl)-3,3-Difluoropiperidine-1-carbonyl]piperidin-1-yl}pyridin-3-yl)piperidine-2,6-dione], for which the DC50 was below 100 nM and the maximal degradation (Dmax) is 70 to 85%.

As for `CC(C)n1cnc2cc(-c3ccc4c(c3)N([C@H]3C[C@@H](N5CCCCC5)C3)C(=O)C43CCN(C(=O)C4CC5(C4)CN(C(=O)C4CCN(c6ccc(C7CCC(=O)NC7=O)cn6)CC4)C5)CC3)nc(NC3CC3)c21` (stereo partly drawn) [Example 182, 3-(6-{4-[6-({6-[4-(cyclopropylamino)-3-(propan-2-yl)-3H-imidazo[4,5-c]pyridin-6-yl]-2-oxo-1-[(1S,3S)-3-(piperidin-1-yl)cyclobutyl]-1,2-dihydrospiro[indole-3,4′-piperidine]-1′-yl}carbonyl)-2-azaspiro[3.3]heptane-2-carbonyl]piperidin-1-yl}pyridin-3-yl)piperidine-2,6-dione], the DC50 was below 100 nM and the maximal degradation (Dmax) was above 85%.

On to `CC(C)n1cnc2cc(-c3ccc4c(c3)N([C@H]3C[C@@H](N5CCCCC5)C3)C(=O)C43CCN(C(=O)C4CCN(C(=O)[C@@H]5CCN(c6ccc(C7CCC(=O)NC7=O)cn6)C5)CC4)CC3)nc(Nc3ccccc3F)c21` (mixture of isomers) [Example 47, (3RS)-3-{6-[(3R)-3-{4-[(6-{4-[(2-fluorophenyl)amino]-3-(propan-2-yl)-3H-imidazo[4,5-c]pyridin-6-yl}-2-oxo-1-[(1S,3S)-3-(piperidin-1-yl)cyclobutyl]-1,2-dihydrospiro[indole-3,4′-piperidin]-1′-yl)carbonyl]piperidine-1-carbonyl}pyrrolidin-1-yl]pyridin-3-yl}piperidine-2,6-dione], for which the 50% degradation concentration (DC50) is 100 to 500 nM and the maximal degradation (Dmax) was in the range of 50 to 70%.
